Measured values: patent US11034702B2, “Thienoisoquinolines and their derivatives for the treatment of cancer” (VALORBEC, SOCIÉTÉ EN COMMANDITE, priority 2016, dated 2021)

Columns and labels:
MCF-7 cells = assay: Mitotic spindle phenotype in MCF-7 cells; format: cell-based, human; conditions: MCF-7, 300 nM, 6-8 hours
Protocol: (§1) FIG. 2A) is a line graph showing the percentage of HCT116 (p53−/−) cells, A549 cells, HeLa cells and H1299 cells in mitosis after treatment with various concentrations of C75 for one population doubling time. All of the cell lines show an increase in the proportion of mitotic cells after treatment with 200 nM C75. The bars indicate standard deviation. […] While the mitotic spindles were not dramatically altered by C75 in HFF1 cells, they were monopolar (as shown) or fragmented in the other cell types. […] The mitotic spindles were more strongly fragmented after C75 treatment in these cells vs. the cells in FIG. 2B). […] While mitotic spindles recovered bipolarity after removing nocodazole, they remained multipolar after removing C75. FIG. 2F) is a series of time-lapse images of a live HeLa cell expressing GFP:tubulin after treatment with C75 as shown in 2D) and 2E). The scale bar for all cells is 10 μm. FIG. 2G) is a schematic showing the putative target for C75. […]
(§2) C75 was also tested for efficacy in different cancer cell lines. […] To further assess the role of C75 in affecting centrosomes, HeLa cells were treated with C75 for a short period of time (5 minutes), then C75 was removed and the cells were analyzed for spindle phenotypes (schematic in FIG. 2D). […]

BT-549 cells = assay: Mitotic spindle phenotype in BT-549 cells; format: cell-based, human; conditions: BT-549, 300 nM, 6-8 hours
Protocol: as §1, §2

HCT116 spheroids = assay: HCT116 multicellular tumour spheroids; format: cell-based
Protocol: FIG. 5A) is a series of images of HeLa multicellular tumor spheroids (spheroids) treated with control (500 nM C87), empty nanoparticles, 500 nM C75 and 250 nM C75-loaded nanoparticles over 3 days. […] The scale bar for all images is 100 μm. FIG. 5B) is a series images of HeLa spheroids after three days of treatment with control (500 nM C87) or 500 nM C75. The spheroids were stained for fluorescein diacetate (to detect live cells) and propidium iodide (to detect dead cells). […] The scale bar for all images is 100 μm. FIG. 5C) is a series of images of HCT116 spheroids treated with control (1 μM C87), 500 nM C75, 1 μM C75 and 500 nM C75-loaded nanoparticles over 5 days. […] The borders of the spheroids treated with 1 μM C75 or with 500 nM C75-loaded nanoparticles became highly irregular, indicative of loss of spheroid integrity. FIG. 5D) is a series images of HCT116 spheroids after six days of treatment with control (1 μM C87) or 1 μM C75. The spheroids were stained for fluorescein diacetate (live cells) and propidium iodide (dead cells). […] FIG. 5E) is a line graph showing the growth in surface area (%) of HCT116 spheroids treated with control (1 μM C87), 500 nM C75 and 1 μM C75 after six days. FIG. 5F) is a series of images of A549 spheroids treated with control (750 nM C87), 500 nM C75, 1 μM C75 and 500 nM C75-loaded nanoparticles over 5 days. […] The scale bar for all images is 100 μm. […]

HCT116 (p53-/-) cells = assay: Mitotic arrest (percentage of cells in mitosis) in HCT116 cells; format: cell-based; conditions: HCT116, within one population doubling time
Protocol: as §1, §2

HFF1 cells = assay: Percentage of mitotic HFF1 cells with paclitaxel +/- C75; format: cell-based
Excerpt: FIG. 3A) is a line graph showing the percentage of mitotic HeLa or HFF1 cells treated with a range of paclitaxel (Taxol™; tubulin-targeting drug) concentrations+/−C75 as indicated. The bars indicate standard deviation. FIG. 3B) is a series of bar graphs showing the proportion of HCT116 cells that have monopolar spindles, bipolar spindles with aligned chromosomes, bipolar spindles with misaligned chromosomes and multipolar/fragmented spindles after treatments as shown. Treatments include DMSO (control), varying concentrations of paclitaxel and/or varying concentrations of C75 after 7 hours. While treatment of HCT116 cells with 2.5 nM paclitaxel caused a threshold of mitotic spindle phenotypes, adding increasing concentrations of C75 in combination with 2.5 nM paclitaxel caused the phenotypes to progressively worsen. FIG. 3C) is bar graph showing the average distance between centrosome fragments in HCT116 cells after treatments as shown. While centrosome fragments moved closer together with increased concentrations of paclitaxel, they moved further apart with increased concentrations of C75. […] FIG. 3E) is a line graph showing the percentage of mitotic HeLa or HFF1 cells treated with a range of nocodazole concentrations+/−C75 as indicated. The bars indicate standard deviation. […]

In the case of COc1ccc(S(=O)(=O)N2Cc3ccccc3-c3sc(Br)cc32)cc1 [Compound C75], the mitotic spindle phenotype (MCF-7 cells) is reported as “mix of monopolar, bipolar and multipolar spindles”, the mitotic spindle phenotype (BT-549 cells) is reported as “most of the spindles were severely fragmented” and the “effect on growth of HCT116 spheroids” value (HCT116 spheroids; 500 nM or 1 μM C75, 500 nM C75-loaded nanoparticles, over 5 days) is reported as “regress the growth”. For the same compound, the “live/dead staining of spheroids (fluorescein diacetate / propidium iodide)” value (HCT116 spheroids; HCT116 spheroids, 1 μM, six days) was “much smaller after C75-treatment, but still contained live cells”, the “concentration causing mitotic arrest” value (HCT116 (p53-/-) cells) was 100 to 200 nM and the “effect of C75 on non-cancerous cells treated with paclitaxel” value (HFF1 cells) was “protective effect”.
